The values that follow come from patent US20220025331A1, “METHODS AND SYSTEMS FOR IMPROVING CELLS FOR USE IN THERAPY” (priority 2017, published 2022).

One assay relates to P3 foAC neocartilage. In words: Phase 2: cytochalasin D and hyaluronidase treatment of P3 (passaged, not redifferentiated) neocartilage. It counts as cell-based, sheep. To be noted: P3, 2 million cells/construct; for construct diameter: Cyto D 2 μM first 48 hours, Hya 200 units/mL at seeding. On the procedure:
(§1) Chondrocyte Isolation: Fetal ovine articular chondrocytes (foACs) were harvested from the patellofemoral surfaces of 120-day gestation Dorper cross sheep obtained as medical waste (UC Davis School of Veterinary Medicine). Cartilage from the whole surface of both condyles and the trochlear groove was minced into approximately 1 mm^3 pieces, then washed and centrifuged (500 G for 5 minutes) three times with Dulbecco's Modified Eagle Medium containing 4.5 g/L glucose and GlutaMAX (DMEM; Gibco) and 2% (v/v) penicillin/streptomycin/fungizone (PSF; Lonza). The tissue was digested in 0.2% (w/v) collagenase type II (Worthington) in DMEM containing 3% (v/v) fetal bovine serum (FBS; Atlanta Biologicals) for 18 hours at 37° C. with gentle rocking. After digestion, the resultant cell solutions were filtered through 70 μm cell strainers. For Studies 1-3, foACs were washed with ACK buffer (154.4 mM ammonium chloride (Sigma), 10 mM potassium bicarbonate (Fisher Scientific), 50 mM EDTA tetrasodium salt (Acros Organics) in ultrapure water for three minutes as previously described. These primary (P0) foACs were then frozen in DMEM with 20% (v/v) DMSO (Sigma) and 10% (v/v) FBS.
(§2) Chondrocyte Expansion and Redifferentiation: Previously frozen P0 foACs were seeded in T-225 flasks at 1.5×10^4 cells/cm^2 and expanded in chemically defined chondrogenic medium (CHG medium) (DMEM containing 1% PSF, 1% ITS+ premix (BD Biosciences), 1% non-essential amino acids (Gibco), 100 nM dexamethasone (Sigma), 50 mg/mL ascorbate-2-phosphate (Sigma), 40 g/mL L-proline (Sigma), and […] sodium pyruvate (Sigma)) with 2% FBS and chondrogenically tuned TFP supplementation (1 ng/mL TGF-μ1, 5 ng/mL bFGF, 10 ng/mL PDGF; al from PeproTech). Media was exchanged every 2-3 days. At confluence, cells were lifted with 0.5% Trypsin-EDTA (Gibco) for 5 minutes followed by digestion of the cell layers with DMEM containing 0.2% collagenase type II and 2% FBS for approximately 1 hour at 37° C., triturating every 20 minutes. The resulting cell solution was filtered through a 70 μm cell strainer and reseeded into T-225 flasks to achieve three passages (P3). P3 foACs underwent aggregate redifferentiation (P3R) as previously described. Briefly, 750,000 cells/mL CHG medium containing TGB supplementation (10 ng/mL TGF-β1, 100 ng/mL GDF-5, 100 ng/mL BMP-2; al from PeproTech) were cultured in 100 mm×20 mm petri dishes coated with 1% (w/v) molecular biology grade agarose (Thermo Fisher Scientific) made with phosphate buffered saline (PBS; Sigma) to create a non-adherent environment. Aggregate cultures were maintained on an orbital shaker at 60 rpm for the first 3 days and remained static for the remainder of the 14-day redifferentiation period. Media was exchanged every 2-3 days. At the end of the culture period, aggregates were digested with 0.5% Trypsin-EDTA for 20 minutes, followed by 0.2% collagenase in DMEM with 2% FBS for approximately 2 hours at 37° C., triturating every 20 minutes. Following dissociation of the aggregates, cells were filtered through a 70 μm cell strainer and counted.
(§3) Neocartilage Construct Seeding and Culture: P0, P3, or P3R foACs were self-assembled into engineered neocartilage constructs in non-adherent agarose wells. A sterile stainless steel mold consisting of 5 mm diameter cylindrical posts was inserted into a 48-well plate, each well containing 1 mL molten 2% (w/v) agarose to create a single agarose well per plate well. After solidification of the agarose at room temperature, the mold was removed. Agarose wells were filled with CHG medium exchanged twice over the course of 5 days to ensure saturation of the agarose before seeding. For each phase, cells were seeded into 5 mm agarose wells in 100 μL CHG medium per well. In Phase 1, P0 or P3R foACs were each seeded at five densities: 2, 3, 4, 5, and 6 million cells per construct. In Phase 2, P3 and P3R foACs were seeded at 2 million cells per construct. In Phase 3, 2 million P3R foACs were seeded. […]

The test system of assay [1] is P3R foAC neocartilage. Kind of assay: Phase 2: cytochalasin D and hyaluronidase treatment of P3R (passaged, redifferentiated) neocartilage. In kind it is cell-based, sheep. To be noted: for neocartilage thickness / neocartilage wet weight / construct diameter: P3R Opt; for construct diameter: Cyto D 2 μM first 48 hours, Hya 200 units/mL at seeding. On the procedure:
as §1, §2, §3

Assay [2] has as its system P3R foAC neocartilage. In words: Phase 3: TCL treatment of cytochalasin D treated P3R Opt neocartilage. It counts as cell-based, sheep. Conditions: Phase 3, P3R Opt, 2 million cells. As to the method: as §1
Chondrocyte Expansion and Redifferentiation: Previously frozen P0 foACs were seeded in T-225 flasks at 1.5×10^4 cells/cm^2 and expanded in chemically defined chondrogenic medium (CHG medium) (DMEM containing 1% PSF, 1% ITS+ premix (BD Biosciences), 1% non-essential amino acids (Gibco), 100 nM dexamethasone (Sigma), 50 mg/mL ascorbate-2-phosphate (Sigma), 40 g/mL L-proline (Sigma), and […] sodium pyruvate (Sigma)) with 2% FBS and chondrogenically tuned TFP supplementation (1 ng/mL TGF-μ1, 5 ng/mL bFGF, 10 ng/mL PDGF; al from PeproTech). Media was exchanged every 2-3 days. At confluence, cells were lifted with 0.5% Trypsin-EDTA (Gibco) for 5 minutes followed by digestion of the cell layers with DMEM containing 0.2% collagenase type II and 2% FBS for approximately 1 hour at 37° C., triturating every 20 minutes. […] Following dissociation of the aggregates, cells were filtered through a 70 μm cell strainer and counted. […]

For a further assay, the system named is P3 and P3R foACs. In words: Chondrocyte F-actin visualization (phalloidin staining). It counts as cell-based, sheep. As to the method:
Chondrocyte Actin Visualization: In Phase 2, to visualize the effects of cytochalasin D treatment on cytoskeletal-mediated chondrogenic redifferentiation, F-actin staining was performed on untreated P0 foACs and both cytochalasin D treated and untreated P3 and P3R foACs. Approximately 8×10^3 cells/cm^2 were allowed to attach to glass slides for 1 hour in the presence of 2% FBS. Non-adherent cells were washed away with two exchanges of PBS, followed by the fixation of attached cells in 3.9% formaldehyde in PBS for 10 minutes. After another two washes with PBS, fixed cells were permeabilized with 0.1% Triton-X 100 (Sigma) in PBS for 5 minutes. Following two washes with PBS, cells were stained with CF594-conjugated phalloidin (Biotium; 1200 dilution in PBS) for 30 minutes. Excess stain was washed away with two exchanges of PBS and the cells were counterstained with DAPI-containing Vectashield (Vector Laboratories) and coverslipped for visualization using a Texas Red fluorescent channel.

The subject of assay [3] is adult human costal chondrocytes (ahCCs). Kind of assay: Cyto D treatment of self-assembled neocartilage from human costal chondrocytes (FIG. 18). In kind it is cell-based. To be noted: ahCCs P3 rejuvenated, 2 million cells, 2 μM at day 0-2. As to the method: Control constructs were untreated. Constructs treated with cytochalasin D (Cyto D) were treated with 2 μM at day 0-2. […] This example clearly illustrates that it is not obvious that a treatment that is beneficial for cells from one species will be beneficial when applied to cells from another species.

The mark [4] stands for this setting: P3R Opt neocartilage, over the untreated group.
[5] abbreviates: cytochalasin D treated P3R Opt neocartilage.
Setting [6] is: foACs P3 rejuvenated, 2 million cells, 2 μM at day 0-2, FIG. 18.

In the assay on P3 foAC neocartilage, `C=C1[C@@H](C)[C@H]2[C@H](Cc3ccccc3)NC(=O)[C@]23[C@H](OC(C)=O)/C=C/[C@@](C)(O)C(=O)[C@@H](C)C/C=C/[C@H]3[C@@H]1O` [cytochalasin D] returned a neocartilage thickness of 0.4±0.1 mm, a neocartilage wet weight of 8.4 ± 1.0 mg and a construct diameter of 3.7±0.2 mm. Besides, the “increase of aggregate modulus over the P0 control” value with P3R foAC neocartilage [1] (ACK treated P3R cells, 2 million cells/construct, vs untreated P0 control) came to 9.6 fold. In the assay with P3R foAC neocartilage [1] (ACK treated P3R chondrocytes seeded at 2 million cells/construct), the neocartilage aggregate modulus is given as 400 kPa. Moreover, in the assay with P3R foAC neocartilage [1] (setting [4]), the “increase in compressive stiffness (aggregate modulus)” value came out at 0.9 fold, the “increase in tensile stiffness” value stood at 1.0 fold and the “increase in tensile strength” value worked out at 2.7 fold. In the assay on P3R foAC neocartilage [1] (2 million cells/construct), this compound returned a neocartilage thickness of 0.7±0.1 mm, a neocartilage wet weight of 28.1 ± 2.6 mg and a construct diameter of 6.5±0.2 mm. In addition, the GAG/wet weight entry in the assay on P3R foAC neocartilage [1] (P3R neocartilage, FIG. 8C) is on record as “increased”. In addition, in the assay with P3R foAC neocartilage [1] (setting [5]), the “functionality index (FI) with respect to native fetal cartilage” value was 1.1 and the “functionality index (FI) with respect to native juvenile cartilage” value was found to be 0.83. Further, in the assay with P3R foAC neocartilage [1] (setting [6]), the compressive aggregate modulus result is on record as “significantly increased” and the shear modulus entry is “significantly increased”. Moreover, in the assay on P3R foAC neocartilage [2], the neocartilage diameter came out at 6.5±0.4 mm, the neocartilage thickness was 0.8±0.2 mm and the neocartilage wet weight was determined as 87.1 ± 3.6 mg. The actin arrangement entry with P3 and P3R foACs (P3R chondrocytes) is listed as “localized more of the actin cortically than in untreated P3R cells”. Also, in the assay on P3 and P3R foACs (P3 chondrocytes), the “cell shape and actin arrangement” value was “induced a rounded cell shape”. In assay [3], the aggregate modulus entry is reported as “significantly decreased” and the shear modulus result is on record as “significantly decreased”.
In the assay with P3 foAC neocartilage, hyaluronidase yielded a neocartilage thickness of 2.0±0.2 mm, a neocartilage wet weight of 6.7 ± 0.4 mg and a construct diameter of 2.6±0.1 mm. In addition, in the assay on P3R foAC neocartilage [1] (2 million cells/construct), the neocartilage thickness is on record as 0.8±0.2 mm, the neocartilage wet weight turned out to be 23.9 ± 1.4 mg and the construct diameter is listed as 5.9±0.0 mm.
